#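 All cell lines were grown in 96-well plates and treated with compound for 48 hours. GI50: concentration for 50% inhibition of growth. TGI is the concentration that stops growth completely.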
# Tests used:
# Assay in all cases: growth of human tumour cells (NCI), 48 h
# HCT-116 colon = system: HCT-116 colon
# SN12C renal = system: SN12C renal
# MDA-MB-435 = system: MDA-MB-435
# SK-OV-3 ovarian = system: SK-OV-3 ovarian
# NCI/ADR-RES ovarian = system: NCI/ADR-RES ovarian
# MCF7 breast = system: MCF7 breast
# KM12 colon = system: KM12 colon
# SF-539 CNS = system: SF-539 CNS
# EKVX NSCLC = system: EKVX NSCLC
# HT29 colon = system: HT29 colon
# T-47D breast = system: T-47D breast
# HCC-2998 colon = system: HCC-2998 colon
# IGROV1 ovarian = system: IGROV1 ovarian
# UACC-257 melanoma = system: UACC-257 melanoma
# TK-10 renal = system: TK-10 renal
# CCRF-CEM leukemia = system: CCRF-CEM leukemia
# RPMI-8226 leukemia = system: RPMI-8226 leukemia
# SF-268 CNS = system: SF-268 CNS
# SK-MEL-5 melanoma = system: SK-MEL-5 melanoma
# ACHN renal = system: ACHN renal
# U251 CNS = system: U251 CNS
# NCI-H522 lung = system: NCI-H522 lung
# SK-MEL-28 melanoma = system: SK-MEL-28 melanoma
# OVCAR-5 ovarian = system: OVCAR-5 ovarian
# MDA-MB-231 breast = system: MDA-MB-231 breast
# 786-0 renal = system: 786-0 renal
# SK-MEL-2 melanoma = system: SK-MEL-2 melanoma
# SF-295 CNS = system: SF-295 CNS
# HOP-92 NSCLC = system: HOP-92 NSCLC
# PC-3 prostate = system: PC-3 prostate
# SNB-75 CNS = system: SNB-75 CNS
# LOX IMVI melanoma = system: LOX IMVI melanoma
# UACC-62 melanoma = system: UACC-62 melanoma
# OVCAR-4 ovarian = system: OVCAR-4 ovarian
# OVCAR-8 ovarian = system: OVCAR-8 ovarian
# HS 578T breast = system: HS 578T breast
# NCI-H460 lung = system: NCI-H460 lung
# CAKI-1 renal = system: CAKI-1 renal
# NCI-H226 lung = system: NCI-H226 lung
# MOLT-4 leukemia = system: MOLT-4 leukemia
# UO-31 renal = system: UO-31 renal
# RXF 393 renal = system: RXF 393 renal
# K-562 leukemia = system: K-562 leukemia
# BT-549 breast = system: BT-549 breast
# HL-60(TB) leukemia = system: HL-60(TB) leukemia
# SNB-19 CNS = system: SNB-19 CNS
# HCT-15 colon = system: HCT-15 colon
# SW-620 colon = system: SW-620 colon
# COLO 205 colon = system: COLO 205 colon
# A549 NSCLC = system: A549 NSCLC
# DU-145 prostate = system: DU-145 prostate
# NCI-H23 lung = system: NCI-H23 lung
# OVCAR-3 ovarian = system: OVCAR-3 ovarian
# HOP-62 NSCLC = system: HOP-62 NSCLC
compound,measurement,setting,value
Clc1ccc(OCc2nn3c(CCCCc4nnc5sc(COc6ccc(Cl)cc6Cl)nn45)nnc3s2)c(Cl)c1,GI50,HCT-116 colon,18.1 µM
same,TGI,HCT-116 colon,63.1 µM
same,GI50,SN12C renal,94.3 µM
same,TGI,SN12C renal,> 100 µM
same,GI50,MDA-MB-435,49.6 µM
same,TGI,MDA-MB-435,> 100 µM
same,GI50,SK-OV-3 ovarian,> 100 µM
same,TGI,SK-OV-3 ovarian,> 100 µM
same,GI50,NCI/ADR-RES ovarian,35.8 µM
same,TGI,NCI/ADR-RES ovarian,> 100 µM
same,GI50,MCF7 breast,48.1 µM
same,TGI,MCF7 breast,> 100 µM
same,GI50,KM12 colon,31.9 µM
same,TGI,KM12 colon,> 100 µM
same,GI50,SF-539 CNS,55.8 µM
same,TGI,SF-539 CNS,> 100 µM
same,GI50,EKVX NSCLC,57.5 µM
same,TGI,EKVX NSCLC,> 100 µM
same,GI50,HT29 colon,> 100 µM
same,TGI,HT29 colon,> 100 µM
same,GI50,T-47D breast,43.9 µM
same,TGI,T-47D breast,> 100 µM
same,GI50,HCC-2998 colon,35.3 µM
same,TGI,HCC-2998 colon,> 100 µM
same,GI50,IGROV1 ovarian,83 µM
same,TGI,IGROV1 ovarian,> 100 µM
same,GI50,UACC-257 melanoma,72.7 µM
same,TGI,UACC-257 melanoma,> 100 µM
same,GI50,TK-10 renal,32.6 µM
same,TGI,TK-10 renal,92 µM
same,GI50,CCRF-CEM leukemia,51 µM
same,TGI,CCRF-CEM leukemia,> 100 µM
same,GI50,RPMI-8226 leukemia,25.4 µM
same,TGI,RPMI-8226 leukemia,59.6 µM
same,GI50,SF-268 CNS,73.1 µM
same,TGI,SF-268 CNS,> 100 µM
same,GI50,SK-MEL-5 melanoma,42 µM
same,TGI,SK-MEL-5 melanoma,> 100 µM
same,GI50,ACHN renal,93.6 µM
same,TGI,ACHN renal,> 100 µM
same,GI50,U251 CNS,29 µM
same,TGI,U251 CNS,89.7 µM
same,GI50,NCI-H522 lung,45.2 µM
same,TGI,NCI-H522 lung,> 100 µM
same,GI50,SK-MEL-28 melanoma,> 100 µM
same,TGI,SK-MEL-28 melanoma,> 100 µM
same,GI50,OVCAR-5 ovarian,> 100 µM
same,TGI,OVCAR-5 ovarian,> 100 µM
same,GI50,MDA-MB-231 breast,44.3 µM
same,TGI,MDA-MB-231 breast,> 100 µM
same,GI50,786-0 renal,65.4 µM
same,TGI,786-0 renal,> 100 µM
same,GI50,SK-MEL-2 melanoma,> 100 µM
same,TGI,SK-MEL-2 melanoma,> 100 µM
same,GI50,SF-295 CNS,40.6 µM
same,TGI,SF-295 CNS,> 100 µM
same,GI50,HOP-92 NSCLC,50.3 µM
same,TGI,HOP-92 NSCLC,> 100 µM
same,GI50,PC-3 prostate,47.8 µM
same,TGI,PC-3 prostate,> 100 µM
same,GI50,SNB-75 CNS,33.3 µM
same,TGI,SNB-75 CNS,> 100 µM
same,GI50,LOX IMVI melanoma,67.1 µM
same,TGI,LOX IMVI melanoma,> 100 µM
same,GI50,UACC-62 melanoma,69.4 µM
same,TGI,UACC-62 melanoma,> 100 µM
same,GI50,OVCAR-4 ovarian,50.3 µM
same,TGI,OVCAR-4 ovarian,> 100 µM
same,GI50,OVCAR-8 ovarian,46.2 µM
same,TGI,OVCAR-8 ovarian,> 100 µM
same,GI50,HS 578T breast,36.7 µM
same,TGI,HS 578T breast,> 100 µM
same,GI50,NCI-H460 lung,71.9 µM
same,TGI,NCI-H460 lung,> 100 µM
same,GI50,CAKI-1 renal,40.1 µM
same,TGI,CAKI-1 renal,> 100 µM
same,GI50,NCI-H226 lung,38 µM
same,TGI,NCI-H226 lung,> 100 µM
same,GI50,MOLT-4 leukemia,18.4 µM
same,TGI,MOLT-4 leukemia,48.5 µM
same,GI50,UO-31 renal,> 100 µM
same,TGI,UO-31 renal,> 100 µM
same,GI50,RXF 393 renal,83.9 µM
same,TGI,RXF 393 renal,> 100 µM
same,GI50,K-562 leukemia,22.7 µM
same,TGI,K-562 leukemia,61 µM
same,GI50,BT-549 breast,54.2 µM
same,TGI,BT-549 breast,> 100 µM
same,GI50,HL-60(TB) leukemia,> 100 µM
same,TGI,HL-60(TB) leukemia,> 100 µM
same,GI50,SNB-19 CNS,76.8 µM
same,TGI,SNB-19 CNS,> 100 µM
same,GI50,HCT-15 colon,> 100 µM
same,TGI,HCT-15 colon,> 100 µM
same,GI50,SW-620 colon,> 100 µM
same,TGI,SW-620 colon,> 100 µM
same,GI50,COLO 205 colon,52 µM
same,TGI,COLO 205 colon,> 100 µM
same,GI50,A549 NSCLC,82.6 µM
same,TGI,A549 NSCLC,> 100 µM
same,GI50,DU-145 prostate,71.9 µM
same,TGI,DU-145 prostate,> 100 µM
same,GI50,NCI-H23 lung,37.3 µM
same,TGI,NCI-H23 lung,> 100 µM
same,GI50,OVCAR-3 ovarian,30.4 µM
same,TGI,OVCAR-3 ovarian,74.4 µM
same,GI50,HOP-62 NSCLC,60.1 µM
same,TGI,HOP-62 NSCLC,> 100 µM

# Source: PubChem BioAssay (NCI)
